Paper PMC10055926
Entries after “also recorded” stand apart in the source; their conditions may differ.

Tested on: SARS-CoV-2 Omicron variant (B.1.1.529-BA.1)
Assay type: cell-based
Conditions: up to 20 µM; Omicron B.1.1.529-BA.1

C[C@H](NC(=O)[C@H](Cc1ccc(O)cc1)NC(=O)OCc1ccccc1)C(=O)C=[N+]=[N-]
inhibitory activity against SARS-CoV-2 Omicron in HNEC ALI cultures (in words): no inhibitory activity; also recorded: unable to block entry
